Columns and labels:
[1] = system: STING, TBK1, IRF3, RELA, IRF7; test: Western blot of key signaling proteins involved in STING signaling; assay type: cell-based, human
Experimental: 0.5 million cells were lysed for 30 minutes on ice in 50 μl RIPA buffer (50 mM Tris HCl, 150 mM NaCl, 0.1% SDS, 0.5% DOC, 1% NP-40) with Protease inhibitor (Roche #1187358001). To evaluate, phospho-proteins 50 mM NaF and 1 mM sodium orthovanadate were added to the lysis buffer. Protein lysates were cleared by centrifugation at 12,000 g for 10 to 12 minutes at 4° C. 10 μl of 6× Laemmli buffer (fisher scientific #J61337) was added to 50 μl protein lysates and samples were boiled at 95° C. for 15 minutes. Protein samples were resolved on 4%-20% Biorad precast SDS-PAGE gels (#5671125) and transferred onto PVDF membranes (BioRad #1704157). Membranes were blocked in 5% non-fat dry milk in PBS 0.1% tween or in TBS 5% BSA 0.1% Tween to detect phosphorylated proteins. Primary antibodies were used at 1:1000:phospho-STING (clone-D7C3S), STING (clone-D2P2F), serine 172 phospho-TBK1 (clone-D52C2), TBK1 (clone-D11B4), serine 396 phospho IRF3 (clone-D6O1M), IRF3 (clone-D83B9), RELA (clone-C22B4), IRF7 (clone-12G9A36), cGAS (clone-D1 D3G), Actin (clone-C4), Sendai viral proteins (Biozol #MBL-PD029). Secondary anti-rabbit or anti-mouse antibody were used at 1:10,000 (santa cruz #sc-2357, #sc-516102). ECL signal (Biorad #1705061 and #1705062) was recorded on a ChemiDoc Touch Biorad Imager. Data was analyzed and quantified with Image Lab software (Biorad). In figures, dotted lines indicate reordering of lanes from a single original membrane for visualization purpose.

cGAS = cGAS localization by confocal microscopy in CD4+ T cells; assay type: cell-based, human; conditions: activated CD4+ T cells overexpressing IRF3 or RELA K5R, FIG. 5D, 5E
Experimental: 4 to 5 days following transduction, 500,000 cells were plated on 0.1% poly-L lysine in water (Sigma #8920) coated coverslips and left for 30 minutes to attach. Cells were fixed in PBS 4% paraformaldehyde for 20 minutes at room temperature (RT). Coverslips were washed twice in PBS and quenched with 500 μl of freshly prepared PBS Glycine (375 mg Glycine in 50 mL of PBS) for 10 minutes at room temperature. […] Coverslips were incubated with primary antibody against cGAS (clone D1 D3G) or isotype control (clone DA1E) at a concentration of 0.085 μg/ml in PBS 0.2% BSA 0.05% saponin and left overnight at 4° C. in a moist chamber. Coverslips were washed 5 times with PBS 0.2% BSA 0.05% saponin and incubated in secondary antibody goat anti-Rabbit IgG at 1:400 (Invitrogen #A21246) for 45 minutes at RT. Coverslips were washed 5 times with PBS 0.2% BSA 0.05% saponin, rinsed in water and mounted on a glass slide using 10 μl fluoromount-G with DAPI (Invitrogen #00-4959-520). Glass slides were allowed to dry in a 37° C. chamber for 30 minutes and stored at 4° C. Images were acquired on a Leica Dml8 inverted microscope equipped with an SP8 confocal unit using a 40× (1.3 NA) oil objective. Image analysis was performed using Fiji software^77. […] Average cGAS and GFP intensities were measured in the whole cell, the nuclei and the cytosol (defined by the whole cell excluding the nuclear region).

Row | Molecule | endogenous RELA expression ([1]; overexpression in CD4+ T cells and MDDC, FIG. 2C) | cGAS localization (predominantly nuclear) (cGAS) | phospho-IRF3 levels in response to cGAMP ([1]; IRF3 over-expression, equivalent in CD4+ T cells and MDDC, FIG. 3C)
1 | RELA K5R: RELA mutant converting five lysine residues (K122, K123, K310, K314, K315) to arginine, expressed from lentivector | no impact | remained unchanged | 
2 | IRF3: interferon Regulatory Factor 3, over-expressed from lentivector (protein, UniProt Q14653 1-427, looked up) Interferon regulatory factor 3: MGTPKPRILPWLVSQLDLGQLEGVAWVNKSRTRFRIPWKHGLRQDAQQEDFGIFQAWAEATGAYVPGRDKPDLPTWKRNFRSALNRKEGLRLAEDRSKDPHDPHKIYEFVNSGVGDFSQPDTSPDTNGGGSTSDTQEDILDELLGNMVLAPLPDPGPPSLAVAPEPCPQPLRSPSLDNPTPFPNLGPSENPLKRLLVPGEEWEFEVTAFYRGRQVFQQTISCPEGLRLVGSEVGDRTLPGWPVTLPDPGMSLTDRGVMSYVRHVLSCLGGGLALWRAGQWLWAQRLGHCHTYWAVSEELLPNSGHGPDGEVPKDKEGGVFDLGPFIVDLITFTEGSGRSPRYALWFCVGESWPQDQPWTKRLVMVKVVPTCLRALVEMARVGGASSLENTVDLHISNSHPLSLTSDQYKAYLQDLVEGMDFQGPGES |  | remained unchanged | massive increase

Source: US20250213614A1, “Modified RELA Protein for Inducing Interferon Expression and Engineered Immune Cells with Improved Interferon Expression” (Institut Curie, priority 2022, published 2025)
